Reference: US20060069132A1, “Azolecarboxamide herbicides” (priority 2004, published 2006)

Columns and labels:
[1] = test system: rice; assay: Test B flooded paddy test; format: in vivo, Oryza sativa; conditions: 1000 g ai/ha, scale 0 to 100 (0 no effect, 100 complete control)
Outline: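 Each value is a visual 0–100 response rating taken against controls 13 to 15 days after treatment in the greenhouse. Plants received formulated chemical postemergence at the 1- to 4-leaf stage or, in flooded paddy, at the 2-leaf stage.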

[2] = test system: velvetleaf; assay: Test B pre-/postemergence herbicide test; format: in vivo, Abutilon theophrasti; conditions: for Velvetleaf plant response rating: postemergence, scale 0 (no effect) to 100 (complete control)
Outline: (§1)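 Evaluation is visual, comparing treated with control plants on a scale where 0 means no effect and 100 means full control. Treatments were preemergence, or postemergence on seedlings 2–18 cm tall, and held 13–15 days in the greenhouse.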

[3] = test system: small flower umbrella sedge; assay: Test B flooded paddy test; format: in vivo, Cyperus difformis; conditions: 1000 g ai/ha, scale 0 to 100 (0 no effect, 100 complete control)
Outline: (§2)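 Postemergence plants were sprayed with formulated test chemicals at 2 to 18 cm height (1- to 4-leaf stage); paddy species were grown to the 2-leaf stage. After 13 to 15 days in a greenhouse, injury was rated visually against untreated controls on a 0–100 scale (0 = no effect, 100 = complete control).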

[4] = test system: ducksalad; assay: Test B flooded paddy test; format: in vivo, Heteranthera limosa; conditions: 1000 g ai/ha, scale 0 to 100 (0 no effect, 100 complete control)
Outline: as §2

[5] = test system: giant foxtail; assay: Test B pre-/postemergence herbicide test; format: in vivo, Setaria faberi; conditions: for Foxtail, Giant plant response rating: postemergence, scale 0 (no effect) to 100 (complete control)
Outline: as §1

[6] = test system: lambsquarters; assay: Test B pre-/postemergence herbicide test; format: in vivo, Chenopodium album; conditions: for Lambsquarters plant response rating: postemergence, scale 0 (no effect) to 100 (complete control)
Outline: as §1

[7] = test system: wild oat; assay: Test B postemergence herbicide test; format: in vivo, Avena fatua; conditions: postemergence, visual rating, scale 0 (no effect) to 100 (complete control)
Outline: as §2

[8] = test system: rice; assay: Test B pre-/postemergence herbicide test; format: in vivo, Oryza sativa; conditions: 0 = no effect, 100 = complete control, preemergence
Outline: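 Plants compared with untreated controls 13–15 days post-treatment and given a visual 0–100 injury score. Applications: preemergence to seeds; postemergence at 1- to 4-leaf (2–18 cm); paddy species flooded, 2-leaf stage. Vehicle non-phytotoxic, surfactant included.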

[9] = test system: large crabgrass; assay: Test B pre-/postemergence herbicide test; format: in vivo, Digitaria sanguinalis; conditions: for Crabgrass, Large plant response rating: postemergence, scale 0 (no effect) to 100 (complete control)
Outline: as §1

[10] = test system: rice; assay: Test C flooded paddy test; format: in vivo, Oryza sativa
Outline: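 Plants were grown to the 1- to 4-leaf stage (2–18 cm) and then treated postemergence, or grown to the 2-leaf stage for the flooded paddy test. They were held in a greenhouse for 12 to 14 days and then scored by eye against controls, where 0 is no effect and 100 is complete control.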

[11] = test system: barnyardgrass; assay: Test B pre-/postemergence herbicide test; format: in vivo, Echinochloa crus-galli; conditions: 0 = no effect, 100 = complete control, preemergence
Outline: (§3)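 Seeds were planted and treated preemergence with compounds formulated in a non-phytotoxic solvent mixture containing surfactant, while plants at the 1- to 4-leaf stage (2 to 18 cm) received postemergence sprays. Flooded paddy plants were grown to the 2-leaf stage. After 13 to 15 days in a greenhouse, injury was visually rated 0–100 against untreated controls.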

[12] = test system: smallflower umbrella sedge; assay: Test C flooded paddy test; format: in vivo, Cyperus difformis
[13] = test system: blackgrass; assay: Test B postemergence herbicide test; format: in vivo, Alopecurus myosuroides; conditions: postemergence, visual rating, scale 0 (no effect) to 100 (complete control)
Outline: as §2

[14] = test system: barnyardgrass; assay: Test B flooded paddy test; format: in vivo, Echinochloa crus-galli; conditions: 1000 g ai/ha, scale 0 to 100 (0 no effect, 100 complete control)
Outline: as §2

[15] = test system: Surinam grass; assay: Test B pre-/postemergence herbicide test; format: in vivo, Urochloa decumbens; conditions: for Surinam Grass plant response rating: postemergence, scale 0 (no effect) to 100 (complete control)
Outline: as §1

[16] = test system: corn; assay: Test B pre-/postemergence herbicide test; format: in vivo, Zea mays; conditions: for Corn plant response rating: postemergence, scale 0 (no effect) to 100 (complete control)
Outline: as §1

[17] = test system: ducksalad; assay: Test C flooded paddy test; format: in vivo, Heteranthera limosa
[18] = test system: pigweed; assay: Test B pre-/postemergence herbicide test; format: in vivo, Amaranthus retroflexus; conditions: for Pigweed plant response rating: postemergence, scale 0 (no effect) to 100 (complete control)
Outline: as §1

[19] = test system: wheat; assay: Test B postemergence herbicide test; format: in vivo, Triticum aestivum; design: key to Wheat plant response rating: 0 = no effect, 100 = complete control; conditions: postemergence, visual rating, scale 0 (no effect) to 100 (complete control)
Outline: as §2

[20] = test system: cocklebur; assay: Test B pre-/postemergence herbicide test; format: in vivo, Xanthium strumarium; conditions: for Cocklebur plant response rating: postemergence, scale 0 (no effect) to 100 (complete control)
Outline: as §3

[21] = test system: morningglory; assay: Test B pre-/postemergence herbicide test; format: in vivo, Ipomoea coccinea
Outline: as §3

[22] = test system: barnyardgrass; assay: Test C flooded paddy test; format: in vivo, Echinochloa crus-galli
Outline: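 Postemergence sprays applied to plants 2 to 18 cm tall (1- to 4-leaf stage); paddy species grown to 2-leaf stage under flooding. After 12 to 14 days in greenhouse, visual rating versus untreated controls on 0–100 scale (0 no effect, 100 complete control).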

[23] = 125 g ai/ha, 0 = no effect, 100 = complete control, preemergence
[24] = 500 g ai/ha, visual rating, 0 = no effect, 100 = complete control, preemergence
[25] = 62 g ai/ha, scale 0 to 100 (0 no effect, 100 complete control)
[26] = 125 g ai/ha, scale 0 to 100 (0 no effect, 100 complete control)
[27] = 250 g ai/ha, scale of 0 to 100, 0 is no effect, 100 is complete control
[28] = 500 g ai/ha, visual rating after 12 to 14 days, scale 0 to 100 (0 no effect, 100 complete control)

## CCc1cn(C(C)(C)C)nc1C(=O)Nc1cc(C(=O)N(C)CC)ccn1 [Compound 235]
[1]
  Rice plant response rating: 40
[2]; [23]
  Velvetleaf plant response rating (0 to 100 scale): 10
[2]; [24]
  Plant response rating, Velvetleaf: 30
[2]; 125 g ai/ha, visual rating
  Velvetleaf plant response rating: 20
[2]; 500 g ai/ha, visual rating
  Velvetleaf plant response rating: 30
[3]
  Sedge, Umbrella plant response rating: 80
[4]
  Ducksalad plant response rating: 90
[5]; [23]
  Foxtail, Giant plant response rating (0 to 100 scale): 0
[5]; [24]
  Plant response rating, Foxtail, Giant: 50
[5]; 125 g ai/ha, visual rating
  Foxtail, Giant plant response rating: 10
[5]; 500 g ai/ha, visual rating
  Foxtail, Giant plant response rating: 30
[6]; [23]
  Lambsquarters plant response rating (0 to 100 scale): 50
[6]; [24]
  Plant response rating, Lambsquarters: 90
[6]; 125 g ai/ha, visual rating
  Lambsquarters plant response rating: 40
[6]; 500 g ai/ha, visual rating
  Lambsquarters plant response rating: 50
[7]; 125 g ai/ha
  Oat, Wild plant response rating: 10
[7]; 500 g ai/ha
  Oat, Wild plant response rating: 20
[8]; 125 g ai/ha
  Rice plant response rating (0 to 100 scale): 0
[8]; 500 g ai/ha, visual rating
  Plant response rating, Rice: 20
[9]; [23]
  Crabgrass, Large plant response rating (0 to 100 scale): 40
[9]; [24]
  Plant response rating, Crabgrass, Large: 90
[9]; 125 g ai/ha, visual rating
  Crabgrass, Large plant response rating: 10
[9]; 500 g ai/ha, visual rating
  Crabgrass, Large plant response rating: 20
[10]; [25]
  Rice plant response rating: 0
[10]; [26]
  Rice plant response rating: 0
[10]; [27]
  Rice plant response rating: 25
[10]; [28]
  Plant response rating, Rice: 35
[11]; 125 g ai/ha
  Barnyardgrass plant response rating (0 to 100 scale): 10
[11]; 500 g ai/ha, visual rating
  Plant response rating, Barnyardgrass: 50
[12]; [25]
  Sedge, Umbrella plant response rating: 0
[12]; [26]
  Sedge, Umbrella plant response rating: 50
[12]; [27]
  Sedge, Umbrella plant response rating: 55
[12]; [28]
  Plant response rating, Sedge, Umbrella: 80
[13]; 125 g ai/ha
  Blackgrass plant response rating: 0
[13]; 500 g ai/ha
  Blackgrass plant response rating: 20
[14]
  Barnyardgrass plant response rating: 40
[15]; [23]
  Surinam Grass plant response rating (0 to 100 scale): 10
[15]; [24]
  Plant response rating, Surinam Grass: 60
[15]; 125 g ai/ha, visual rating
  Surinam Grass plant response rating: 10
[15]; 500 g ai/ha, visual rating
  Surinam Grass plant response rating: 10
[16]; [23]
  Corn plant response rating (0 to 100 scale): 0
[16]; [24]
  Plant response rating, Corn: 20
[16]; 125 g ai/ha, visual rating
  Corn plant response rating: 20
[16]; 500 g ai/ha, visual rating
  Corn plant response rating: 40
[17]; [25]
  Ducksalad plant response rating: 0
[17]; [26]
  Ducksalad plant response rating: 0
[17]; [27]
  Ducksalad plant response rating: 0
[17]; [28]
  Plant response rating, Ducksalad: 75
[18]; [23]
  Pigweed plant response rating (0 to 100 scale): 30
[18]; [24]
  Plant response rating, Pigweed: 100
[18]; 125 g ai/ha, visual rating
  Pigweed plant response rating: 30
[18]; 500 g ai/ha, visual rating
  Pigweed plant response rating: 40
[19]; 125 g ai/ha
  Wheat plant response rating: 0
[19]; 500 g ai/ha
  Wheat plant response rating: 20
[20]; [23]
  Cocklebur plant response rating (0 to 100 scale): 0
[20]; [24]
  Plant response rating, Cocklebur: 0
[20]; 125 g ai/ha, visual rating
  Cocklebur plant response rating: 0
[20]; 500 g ai/ha, visual rating
  Cocklebur plant response rating: 30
[21]; [23]
  Morningglory plant response rating (0 to 100 scale): 10
[21]; [24]
  Plant response rating, Morningglory: 10
[21]; postemergence, 500 g ai/ha, visual rating, scale 0 (no effect) to 100 (complete control)
  Morningglory plant response rating: 70
[22]; [25]
  Barnyardgrass plant response rating: 0
[22]; [26]
  Barnyardgrass plant response rating: 0
[22]; [27]
  Barnyardgrass plant response rating: 0
[22]; [28]
  Plant response rating, Barnyardgrass: 0
